Values after ≈ are worked out from the molar mass of the structure shown. Peptide text beside a SMILES is read from it. * marks the point of attachment. Cbz = O=C(OCc1ccccc1)*
Columns and labels:
[1] = test system: NO production in LPS-activated RAW264.7 macrophages; assay: Nitric oxide production in LPS-activated RAW264.7 macrophages; type: cell-based, murine; details: Mus musculus, positive control, 1 μg/mL LPS, 18 h
Method: Murine monocytic RAW264.7 macrophages were dispensed into 96-well plates (2 × 10^5 cells/well) containing RPMI-1640 medium (HyClone) with 10% FBS under a humidified atmosphere with 5% CO2 at 37 °C. After 24 h of preincubation, cells were treated with serial dilutions of the test compounds, up to a maximum concentration of 40 μM, in the presence of 1 μg/mL LPS for 18 h. The compounds were dissolved in DMSO and further diluted in the medium to produce different concentrations. NO production in each well was assessed by adding 100 μL of Griess reagent (reagent A and reagent B, Sigma, St. Louis, MO, USA) to 100 μL of each supernatant from the LPS-treated (Sigma) or LPS- and compound-treated cells in triplicate. After a 5 min incubation, the absorbance of samples was measured at 570 nm with a 2104 Envision multilabel plate reader (Perkin-Elmer Life Sciences, Inc., Boston, MA, USA).

[2] = test system: LPS-induced B-cell proliferation (spleen cells); assay: LPS-induced B-cell proliferation ([3H]-thymidine uptake); type: cell-based; details: Mus musculus, spleen cells stimulated with 10 µg/mL LPS
Method: (§1) Female BALB/c mice were sacrificed by cervical dislocation, and the spleens were removed aseptically. Mononuclear cell suspensions were prepared after cell debris and clumps were removed. Erythrocytes were depleted with ammonium chloride buffer solution. Lymphocytes were washed and resuspended in RPMI-1640 medium supplemented with 10% FBS, penicillin (100 U/mL), and streptomycin ([…]).
(§2) Fresh spleen cells were obtained from female BALB/c mice (18–20 g). The 5 × 10^5 spleen cells were cultured at the same conditions as those mentioned above. The cultures, in the presence or absence of various concentrations of compounds, were stimulated with 5 µg/mL of concanavalin A (ConA) or 10 µg/mL of lipopolysaccharide (LPS) to induce T-cells’ or B-cells’ proliferative responses, respectively. Proliferation was assessed in terms of uptake of [^3H]-thymidine during 8 h of pulsing with 25 µL/well of [^3H]-thymidine, and then cells were harvested onto glass fiber filters. The incorporated radioactivity was counted using a Beta scintillation counter (MicroBeta Trilux; PerkinElmer Life Sciences, Waltham, MA, USA). Cells treated without any stimuli were used as a negative control. The immunosuppressive activity of each compound was expressed as the concentration of compound that inhibited ConA-induced T-cell proliferation or LPS-induced B-cell proliferation to 50% (IC50) of the control value. […]

[3] = Cytotoxicity assay (CCK-8) on spleen cells; type: cell-based; details: female, fresh spleen cells (splenic lymphocytes), BALB/c mouse spleen cells
Method: as §1
Cytotoxicity was tested with Cell Counting Kit-8 (CCK-8) assay. Briefly, fresh spleen cells were gained from female BALB/c mice (18–20 g). Spleen cells (1 ×10^6 cells) were seeded in triplicate in 96-well flat plates, then cultured at 37 °C for 48 h in 96-well flat plates in the presence or absence of various concentrations of compounds, as well as in a humidified and 5% CO2-containing incubator. A certain amount of CCK-8 was added to each well at the final 8–10 h of culture. At the end of culturing, we measured the OD values with a microplate reader (Bio-Rad 650, Hercules, CA, USA) at 450 nm. […] The cytotoxicity of each compound was expressed as the concentration of compound that reduced cell viability to 50% (CC50).

Escherichia coli = test system: Escherichia coli; set-up: L.V. Levchenko S.V. O’Neill D.P. Advances in methods and algorithms in a modern quantum chemistry program; details: cited from earlier work
[4] = test system: ConA-induced T-cell proliferation (spleen cells); assay: ConA-induced T-cell proliferation ([3H]-thymidine uptake); type: cell-based; details: Mus musculus, spleen cells stimulated with 5 µg/mL ConA
Method: as §1, §2

human 11β-HSD2 = test system: human 11β-HSD2; set-up: method as in PMID 19879607; details: cited from earlier work
Micrococcus luteus = test system: Micrococcus luteus; set-up: L.V. Levchenko S.V. O’Neill D.P. Advances in methods and algorithms in a modern quantum chemistry program; details: cited from earlier work
[5] = test system: human 11β-hydroxysteroid dehydrogenases (11β-HSD1); set-up: method as in PMID 19879607; details: cited from earlier work
Staphylococcus aureus = test system: Staphylococcus aureus; set-up: method as in ref 17 =  L.V. Levchenko S.V. O’Neill D.P. Advances in methods and algorithms in a modern quantum chemistry program; details: cited from earlier work
Bacillus cereus = test system: Bacillus cereus; set-up: method as in ref 17 = [17];  L.V. Levchenko S.V. O’Neill D.P. Advances in methods and algorithms in a modern quantum chemistry program; details: cited from earlier work
[6] = test system: human embryonic kidney 293 cell; set-up: method as in PMID 26669092; details: read-out: IC50 against human embryonic kidney 293 cell; cited from earlier work

Row | Structure (SMILES) | IC50 [2] [µM] | CC50 at 48 h [3] [µM] | IC50 against human 11β-HSD2 (human 11β-HSD2) [µg/mL] | IC50 against human 11β-HSD1 [5] [µg/mL] | also measured
1 | CC(C)C[C@@H](C=O)NC(=O)[C@H](CC(C)C)NC(=O)[C@H](CC(C)C)NC(=O)OCc1ccccc1 [MG-132] (Cbz-Leu-Leu-Leu-aldehyde) |  |  |  |  | IC50 [1]: 0.2 µM
2 | CC1=CCC2C(C)(C)CCCC2(C)C1CC12OC1C(=O)C(Cc1c(O)cc(CC(C)O)oc1=O)=CC2O (stereo not shown) [Compound 1, craterodoratin T] | 5.52 ± 0.452 | > 40 |  |  | 
3 | CC1=CC[C@H]2C(C)(C)CCC[C@]2(C)[C@H]1C[C@@]12O[C@@H]1[C@H](O)C(CO)=C[C@H]2O [Compound 3, craterellin A] | 20 ± 1.38 | > 40 | 1.5 (≈ 4.14 µM) | 9.1 (≈ 25.1 µM) | MIC against Escherichia coli (Escherichia coli): 6.25 µM (≈ 2.27 µg/mL); IC50 [4]: 9.07 ± 0.644 µM; MIC against Micrococcus luteus (Micrococcus luteus): 6.25 µM (≈ 2.27 µg/mL); MIC against Staphylococcus aureus (Staphylococcus aureus): 6.25 µM (≈ 2.27 µg/mL); MIC against Bacillus cereus (Bacillus cereus): 3.12 µM (≈ 1.13 µg/mL)
4 | CC1=CCC2C(C)(C)C(O)CCC2(C)C1CC12OC1C(O)C(CO)=CC2O (stereo not shown) [craterellin B] |  |  |  | 3.5 (≈ 9.25 µM) | 
5 | C=C1[C@@H](O)[C@H]2O[C@@]2(C[C@H]2C(C)=CC[C@H]3C(C)(C)CCC[C@]23C)[C@H](O)[C@H]1O [craterellin C] |  |  | 25.4 (≈ 70.1 µM) | 14.8 (≈ 40.8 µM) | IC50 [6]: 50.9 µM

Source: paper PMC9963684, “Meroterpenoids with Immunosuppressive Activity from Edible Fungus Craterellus odoratus” (Molecules, 2023)
